In the NIST ThermoML archive (doi:10.1016/j.jct.2004.07.024):
± gives the expanded uncertainty stated by the source.

Assay: xn = mol fraction of the nth substance listed
Settings: 101.33 kPa, Liquid

SMILES: C[S+](C)[O-] [dimethyl sulfoxide] + c1ccccc1
- mass density (293.15 K, x2 = 0.0589): 1084.47 ± 0.3 kg/m3
- mass density (293.15 K, x2 = 0.1255): 1067.5 ± 0.28 kg/m3
- mass density (293.15 K, x2 = 0.1852): 1052.58 ± 0.26 kg/m3
- mass density (293.15 K, x2 = 0.2561): 1035.37 ± 0.24 kg/m3
- mass density (293.15 K, x2 = 0.2934): 1026.52 ± 0.23 kg/m3
- mass density (293.15 K, x2 = 0.3345): 1016.91 ± 0.22 kg/m3
- mass density (293.15 K, x2 = 0.3782): 1006.87 ± 0.2 kg/m3
- mass density (293.15 K, x2 = 0.4312): 994.89 ± 0.2 kg/m3
- mass density (293.15 K, x2 = 0.4757): 985.02 ± 0.21 kg/m3
- mass density (293.15 K, x2 = 0.5963): 958.97 ± 0.24 kg/m3
- mass density (293.15 K, x2 = 0.6875): 939.81 ± 0.26 kg/m3
- mass density (293.15 K, x2 = 0.7369): 929.61 ± 0.27 kg/m3
- mass density (293.15 K, x2 = 0.8637): 903.71 ± 0.31 kg/m3
- mass density (293.15 K, x2 = 0.9562): 885.02 ± 0.33 kg/m3
- mass density (303.15 K, x2 = 0.0596): 1075.16 ± 0.29 kg/m3
- mass density (303.15 K, x2 = 0.1345): 1056.18 ± 0.27 kg/m3
- mass density (303.15 K, x2 = 0.194): 1041.49 ± 0.25 kg/m3
- mass density (303.15 K, x2 = 0.2473): 1028.63 ± 0.23 kg/m3
- mass density (303.15 K, x2 = 0.2893): 1018.74 ± 0.22 kg/m3
- mass density (303.15 K, x2 = 0.3465): 1005.44 ± 0.2 kg/m3
- mass density (303.15 K, x2 = 0.4213): 988.61 ± 0.21 kg/m3
- mass density (303.15 K, x2 = 0.4835): 974.94 ± 0.22 kg/m3
- mass density (303.15 K, x2 = 0.5431): 962.12 ± 0.23 kg/m3
- mass density (303.15 K, x2 = 0.5968): 950.76 ± 0.25 kg/m3
- mass density (303.15 K, x2 = 0.6763): 934.26 ± 0.27 kg/m3
- mass density (303.15 K, x2 = 0.7781): 913.49 ± 0.29 kg/m3
- mass density (303.15 K, x2 = 0.8511): 898.8 ± 0.31 kg/m3
- mass density (303.15 K, x2 = 0.9542): 878.27 ± 0.34 kg/m3
- mass density (313.15 K, x2 = 0.059): 1064.91 ± 0.28 kg/m3
- mass density (313.15 K, x2 = 0.1267): 1047.76 ± 0.25 kg/m3
- mass density (313.15 K, x2 = 0.1873): 1032.78 ± 0.23 kg/m3
- mass density (313.15 K, x2 = 0.2676): 1013.53 ± 0.21 kg/m3
- mass density (313.15 K, x2 = 0.2933): 1007.51 ± 0.2 kg/m3
- mass density (313.15 K, x2 = 0.3378): 997.22 ± 0.2 kg/m3
- mass density (313.15 K, x2 = 0.4321): 976.04 ± 0.22 kg/m3
- mass density (313.15 K, x2 = 0.4752): 966.67 ± 0.23 kg/m3
- mass density (313.15 K, x2 = 0.5514): 950.39 ± 0.25 kg/m3
- mass density (313.15 K, x2 = 0.6011): 939.97 ± 0.26 kg/m3
- mass density (313.15 K, x2 = 0.6837): 923 ± 0.28 kg/m3
- mass density (313.15 K, x2 = 0.7653): 906.53 ± 0.3 kg/m3
- mass density (313.15 K, x2 = 0.8681): 886.1 ± 0.33 kg/m3
- mass density (313.15 K, x2 = 0.9499): 870 ± 0.35 kg/m3
- mass density (323.15 K, x2 = 0.0602): 1054.55 ± 0.26 kg/m3
- mass density (323.15 K, x2 = 0.1257): 1038.36 ± 0.24 kg/m3
- mass density (323.15 K, x2 = 0.1833): 1024.43 ± 0.22 kg/m3
- mass density (323.15 K, x2 = 0.2512): 1008.48 ± 0.21 kg/m3
- mass density (323.15 K, x2 = 0.3294): 990.67 ± 0.2 kg/m3
- mass density (323.15 K, x2 = 0.3931): 976.6 ± 0.22 kg/m3
- mass density (323.15 K, x2 = 0.4615): 961.88 ± 0.23 kg/m3
- mass density (323.15 K, x2 = 0.5232): 948.95 ± 0.25 kg/m3
- mass density (323.15 K, x2 = 0.5972): 933.77 ± 0.27 kg/m3
- mass density (323.15 K, x2 = 0.6502): 923.09 ± 0.28 kg/m3
- mass density (323.15 K, x2 = 0.7149): 910.25 ± 0.3 kg/m3
- mass density (323.15 K, x2 = 0.7896): 895.64 ± 0.32 kg/m3
- mass density (323.15 K, x2 = 0.8788): 878.39 ± 0.34 kg/m3
- mass density (323.15 K, x2 = 0.9556): 863.66 ± 0.36 kg/m3
- mass density (333.15 K, x2 = 0.0593): 1044.75 ± 0.25 kg/m3
- mass density (333.15 K, x2 = 0.1279): 1028.18 ± 0.23 kg/m3
- mass density (333.15 K, x2 = 0.1801): 1015.83 ± 0.21 kg/m3
- mass density (333.15 K, x2 = 0.2566): 998.31 ± 0.2 kg/m3
- mass density (333.15 K, x2 = 0.3263): 982.84 ± 0.21 kg/m3
- mass density (333.15 K, x2 = 0.3862): 969.9 ± 0.23 kg/m3
- mass density (333.15 K, x2 = 0.4523): 955.99 ± 0.24 kg/m3
- mass density (333.15 K, x2 = 0.5213): 941.87 ± 0.26 kg/m3
- mass density (333.15 K, x2 = 0.5869): 928.72 ± 0.27 kg/m3
- mass density (333.15 K, x2 = 0.6532): 915.7 ± 0.29 kg/m3
- mass density (333.15 K, x2 = 0.7256): 901.71 ± 0.31 kg/m3
- mass density (333.15 K, x2 = 0.7959): 888.33 ± 0.33 kg/m3
- mass density (333.15 K, x2 = 0.8864): 871.29 ± 0.35 kg/m3
- mass density (333.15 K, x2 = 0.9116): 866.58 ± 0.36 kg/m3
- mass density (343.15 K, x2 = 0.0593): 1034.67 ± 0.24 kg/m3
- mass density (343.15 K, x2 = 0.1356): 1016.68 ± 0.22 kg/m3
- mass density (343.15 K, x2 = 0.2182): 997.86 ± 0.2 kg/m3
- mass density (343.15 K, x2 = 0.2636): 987.78 ± 0.21 kg/m3
- mass density (343.15 K, x2 = 0.3296): 973.51 ± 0.22 kg/m3
- mass density (343.15 K, x2 = 0.3938): 960.01 ± 0.24 kg/m3
- mass density (343.15 K, x2 = 0.4686): 944.74 ± 0.25 kg/m3
- mass density (343.15 K, x2 = 0.5213): 934.26 ± 0.27 kg/m3
- mass density (343.15 K, x2 = 0.5769): 923.38 ± 0.28 kg/m3
- mass density (343.15 K, x2 = 0.6623): 907.03 ± 0.3 kg/m3
- mass density (343.15 K, x2 = 0.7385): 892.7 ± 0.32 kg/m3
- mass density (343.15 K, x2 = 0.7801): 884.99 ± 0.33 kg/m3
- mass density (343.15 K, x2 = 0.8569): 870.86 ± 0.35 kg/m3
- mass density (343.15 K, x2 = 0.9503): 853.81 ± 0.38 kg/m3
- mass density (353.15 K, x2 = 0.058): 1024.84 ± 0.23 kg/m3
- mass density (353.15 K, x2 = 0.1585): 1001.73 ± 0.2 kg/m3
- mass density (353.15 K, x2 = 0.2335): 985.09 ± 0.21 kg/m3
- mass density (353.15 K, x2 = 0.3065): 969.42 ± 0.23 kg/m3
- mass density (353.15 K, x2 = 0.3765): 954.93 ± 0.24 kg/m3
- mass density (353.15 K, x2 = 0.4187): 946.35 ± 0.25 kg/m3
- mass density (353.15 K, x2 = 0.4682): 936.49 ± 0.27 kg/m3
- mass density (353.15 K, x2 = 0.5242): 925.57 ± 0.28 kg/m3
- mass density (353.15 K, x2 = 0.5912): 912.8 ± 0.3 kg/m3
- mass density (353.15 K, x2 = 0.6404): 903.56 ± 0.31 kg/m3
- mass density (353.15 K, x2 = 0.7556): 882.4 ± 0.34 kg/m3
- mass density (353.15 K, x2 = 0.8024): 873.93 ± 0.35 kg/m3
- mass density (353.15 K, x2 = 0.8701): 861.79 ± 0.36 kg/m3
- mass density (353.15 K, x2 = 0.9284): 851.4 ± 0.38 kg/m3
